Source: ChEMBL document CHEMBL1201862, “PubChem BioAssay data set” (2004)
Active and inactive are the calls of the source.

Key:
Cysteine protease ATG4B = biological target: T1, Cysteine protease ATG4B (Homo sapiens, UniProt Q9Y4P1); type: functional;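 note: Fluorescence-based dose-response confirmation assay measuring inhibition of ATG4B activity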
T1 sequence (Q9Y4P1 whole entry): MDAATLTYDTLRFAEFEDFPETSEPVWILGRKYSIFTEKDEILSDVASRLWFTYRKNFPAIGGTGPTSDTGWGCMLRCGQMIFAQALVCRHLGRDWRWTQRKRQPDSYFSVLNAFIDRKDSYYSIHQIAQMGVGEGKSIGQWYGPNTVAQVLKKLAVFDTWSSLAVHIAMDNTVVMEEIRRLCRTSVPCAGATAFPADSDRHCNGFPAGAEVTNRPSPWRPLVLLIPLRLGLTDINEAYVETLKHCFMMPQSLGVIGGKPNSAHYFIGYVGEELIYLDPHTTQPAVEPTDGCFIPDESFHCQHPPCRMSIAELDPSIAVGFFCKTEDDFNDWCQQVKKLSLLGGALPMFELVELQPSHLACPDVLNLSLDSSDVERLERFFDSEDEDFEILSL

[1] = biological target: ATP-dependent molecular chaperone HSP82 (Candida albicans (strain WO-1) (Yeast), UniProt C4YTQ8); assay: steroid-induced GRE reporter decrease in yeast – S. cerevisiae, luminescence, Hsp90 inhibitor project, dose response (AID 2400); type: functional, cell-based;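 note: beta-galactosidase luminescence from glucocorticoid response element reporter as proxy for Hsp90 function; inhibitor potency where signal loss means Hsp90 inhibition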
[2] = fluconazole-exposed Candida albicans growth modulators – fluorescence, retest, confirmation (AID 2467); type: functional, cell-based
INS1 = assay: INS-1E survival protection against cytokine death – cell-based, luminescence, retest, dose response (AID 449756); type: functional; details: Rattus norvegicus;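 note: cell death triggered by IL-1 beta plus TNF-alpha plus IFN-gamma mixture; protective hits raise ATP signal compared with cytokine alone wells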
cells = type: functional, cell-based
Caspase-9 = biological target: T2, Caspase-9 (Homo sapiens, UniProt P55211); assay: inhibitors of purified CASP9 protease – biochemical, fluorescence, plate reader, cherry-picked samples, selectivity assay for caspase-6 inhibitor project, dose response (AID 743293)
T2 sequence (P55211 whole entry): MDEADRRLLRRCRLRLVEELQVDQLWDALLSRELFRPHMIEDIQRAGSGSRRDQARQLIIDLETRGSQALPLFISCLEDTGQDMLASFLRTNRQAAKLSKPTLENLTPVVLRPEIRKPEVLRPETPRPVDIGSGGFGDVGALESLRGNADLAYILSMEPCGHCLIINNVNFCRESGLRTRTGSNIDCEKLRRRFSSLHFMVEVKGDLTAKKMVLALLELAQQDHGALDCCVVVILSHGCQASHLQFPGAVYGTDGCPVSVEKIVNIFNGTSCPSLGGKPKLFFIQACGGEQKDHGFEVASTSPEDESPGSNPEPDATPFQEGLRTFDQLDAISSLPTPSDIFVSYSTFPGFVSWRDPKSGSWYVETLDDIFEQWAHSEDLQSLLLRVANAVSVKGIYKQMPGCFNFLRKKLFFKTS

[3] = reduced cellular PGC1a acetyl-lysine signal – cell-based, cherry-picked samples, dose response (AID 720514); type: functional;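 note: potency may reflect raised or lowered acetylation signal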
Protein RecA = biological target: T3, Protein RecA (Mycobacterium tuberculosis, UniProt P9WHJ3); assay: Fluorescence Cell-Free Homogeneous Dose Retest to Identify Inhibitors of RecA-Intein Splicing Activity. [Related pubchem assays (depositor defined):AID2097, AID2223, AID489010, AID492950]; type: functional
T3 sequence (P9WHJ3 whole entry): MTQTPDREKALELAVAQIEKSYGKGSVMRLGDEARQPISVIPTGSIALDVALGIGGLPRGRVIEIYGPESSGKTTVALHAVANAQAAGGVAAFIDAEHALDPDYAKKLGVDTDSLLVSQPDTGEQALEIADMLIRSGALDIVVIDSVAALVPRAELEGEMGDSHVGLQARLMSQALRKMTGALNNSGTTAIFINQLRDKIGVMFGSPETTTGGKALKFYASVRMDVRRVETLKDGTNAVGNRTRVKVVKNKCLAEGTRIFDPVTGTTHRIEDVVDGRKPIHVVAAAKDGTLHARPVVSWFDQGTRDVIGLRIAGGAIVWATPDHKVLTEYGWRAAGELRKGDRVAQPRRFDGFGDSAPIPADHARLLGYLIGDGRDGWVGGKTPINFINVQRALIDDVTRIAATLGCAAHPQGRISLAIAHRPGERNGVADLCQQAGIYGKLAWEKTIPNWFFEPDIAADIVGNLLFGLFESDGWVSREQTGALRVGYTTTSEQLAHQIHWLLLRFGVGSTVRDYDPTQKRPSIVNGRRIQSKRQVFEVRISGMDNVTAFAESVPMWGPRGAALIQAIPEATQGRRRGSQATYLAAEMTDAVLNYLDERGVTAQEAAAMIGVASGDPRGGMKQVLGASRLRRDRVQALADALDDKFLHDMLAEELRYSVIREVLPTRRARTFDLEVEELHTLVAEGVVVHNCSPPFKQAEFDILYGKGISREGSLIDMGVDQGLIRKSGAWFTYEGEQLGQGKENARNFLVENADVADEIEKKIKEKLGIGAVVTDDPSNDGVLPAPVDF

[4] = biological target: T4, Calpain-2 catalytic subunit (Sus scrofa, UniProt P43367); assay: m-calpain protease blockers, concentration series – biochemical, fluorogenic peptide substrate, dose response (AID 1420); type: functional
T4 sequence (P43367 whole entry): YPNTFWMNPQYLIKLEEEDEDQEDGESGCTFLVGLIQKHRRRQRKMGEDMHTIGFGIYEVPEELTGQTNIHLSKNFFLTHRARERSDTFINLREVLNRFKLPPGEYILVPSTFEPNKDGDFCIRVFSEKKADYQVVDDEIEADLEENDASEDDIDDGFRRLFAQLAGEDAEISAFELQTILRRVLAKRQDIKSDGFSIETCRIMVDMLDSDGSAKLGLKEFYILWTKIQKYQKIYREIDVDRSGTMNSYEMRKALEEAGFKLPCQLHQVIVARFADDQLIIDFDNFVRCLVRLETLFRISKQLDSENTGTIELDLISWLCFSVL

[5] = activation of miR-122 Renilla sensor silencing – cell-based, Huh7 psiCHECK-miR122, Renilla luciferase, cherry-picked, dose response (AID 651956); type: functional;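 note: huh7 hepatoma cells stably carrying a psiCHECK-2 miR-122 sensor plasmid; renilla luciferase signal reporting endogenous miR-122 activity after 48 h compound exposure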
Cytochrome P450 2C19 = Cytochrome P450 2C19 (Homo sapiens, UniProt P33261); assay: Cytochrome panel assay with activity outcomes. Panel member name: p450-cyp2c19 Compounds with AC50 equal or less than 10 uM are considered active; type: functional; details: read-out: AC50
Cytochrome P450 2C19, sequence (P33261 whole entry): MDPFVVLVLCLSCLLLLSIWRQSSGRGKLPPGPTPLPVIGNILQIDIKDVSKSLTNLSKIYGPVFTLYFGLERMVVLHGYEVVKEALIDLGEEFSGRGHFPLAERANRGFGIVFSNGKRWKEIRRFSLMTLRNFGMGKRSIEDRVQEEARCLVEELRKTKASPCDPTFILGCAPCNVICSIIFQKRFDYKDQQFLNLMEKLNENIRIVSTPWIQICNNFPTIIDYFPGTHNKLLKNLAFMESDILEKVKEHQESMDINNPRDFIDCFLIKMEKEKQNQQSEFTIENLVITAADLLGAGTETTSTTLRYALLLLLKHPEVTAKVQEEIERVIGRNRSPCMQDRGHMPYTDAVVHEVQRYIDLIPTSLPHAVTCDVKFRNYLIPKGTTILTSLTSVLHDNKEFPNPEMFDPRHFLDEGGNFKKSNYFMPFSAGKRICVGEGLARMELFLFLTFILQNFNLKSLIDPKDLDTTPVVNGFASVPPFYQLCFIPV

ATP-dependent molecular chaperone HSP82, sequence (C4YTQ8 whole entry): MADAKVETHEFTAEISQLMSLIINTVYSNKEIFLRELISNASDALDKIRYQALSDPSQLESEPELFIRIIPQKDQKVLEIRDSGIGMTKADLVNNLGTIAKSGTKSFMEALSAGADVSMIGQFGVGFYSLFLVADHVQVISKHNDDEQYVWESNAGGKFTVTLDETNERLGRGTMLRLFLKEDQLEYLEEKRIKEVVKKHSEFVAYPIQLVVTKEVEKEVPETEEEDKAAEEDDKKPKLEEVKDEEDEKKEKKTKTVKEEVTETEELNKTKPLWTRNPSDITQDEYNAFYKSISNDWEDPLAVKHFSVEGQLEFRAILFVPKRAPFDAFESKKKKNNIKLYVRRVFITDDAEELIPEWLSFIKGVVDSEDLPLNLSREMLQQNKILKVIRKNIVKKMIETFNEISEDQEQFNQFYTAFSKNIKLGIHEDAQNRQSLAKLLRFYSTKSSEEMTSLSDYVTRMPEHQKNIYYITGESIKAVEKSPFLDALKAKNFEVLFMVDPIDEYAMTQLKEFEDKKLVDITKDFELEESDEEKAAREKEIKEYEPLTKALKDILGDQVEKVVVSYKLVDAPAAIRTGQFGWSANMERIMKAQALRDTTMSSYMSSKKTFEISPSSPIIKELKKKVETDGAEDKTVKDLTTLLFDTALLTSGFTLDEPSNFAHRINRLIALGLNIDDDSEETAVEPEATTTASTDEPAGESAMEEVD

SMILES | IC50 (Cysteine protease ATG4B) | EC50 [2] | AC50 (INS1) | EC50 (Protein RecA) | other results
COc1ccc(NS(=O)(=O)c2ccc3c(c2)[C@H]2C=CC[C@H]2[C@@H](c2ccc(C(=O)O)cc2)N3)cc1 | 5.28 µM (active) | – | – | – | –
CCC(=O)NC(c1ccc(OC)cc1)c1cc(Cl)c2cccnc2c1O (stereo not given) | – | 769 nM (active) | 1.08 µM (active) | – | EC50 [1]: > 160 µM (inactive); EC50 (cells): > 350 µM (not active)
Cn1nc(-c2ccccn2)nc2c(=O)n(C)c(=O)nc1-2 | 2.07 µM (active) | – | 1.92 µM (active) | 19.1 nM (active) | AC50 (Caspase-9): 317 nM (active); AC50 [3]: 3.15 µM (active)
CCCCCCCCCCn1c2c(c(=N)c3c1CCC3)CCC2 | – | 779 nM (active) | – | 1830 nM (active) | IC50 [4]: 6.72 µM (active); AC50 [5]: 5.06 µM (active); AC50 (Cytochrome P450 2C19): 28.2 µM (inconclusive)
